Assay results as given in ChEMBL document CHEMBL3797088, “Discovery and structure activity relationship study of novel indazole amide inhibitors for extracellular signal-regulated kinase1/2 (ERK1/2)” (Bioorg Med Chem Lett, 2016).
pIC50: −log10 of the molar value. Activity calls are given as the source filed them. The calls are words filed in the database; no cut-off is given here.

What was measured:
HT-29 = assay: Antiproliferative activity against human HT-29 cells harboring B-RAF V600E mutant after 72 hrs by SRB assay; assay type: functional, cell-based; details: HT-29, 72 h
[1] = biological target: Mitogen-activated protein kinase 3 (Homo sapiens, UniProt P27361); assay: Inhibition of human recombinant GST-tagged ERK1 expressed in Escherichia coli using ser/thr 3 Peptide as substrate preincubated for 1 hr measured after 1 hr by Z-LYTE assay
Chain of Mitogen-activated protein kinase 3 (P27361 whole entry): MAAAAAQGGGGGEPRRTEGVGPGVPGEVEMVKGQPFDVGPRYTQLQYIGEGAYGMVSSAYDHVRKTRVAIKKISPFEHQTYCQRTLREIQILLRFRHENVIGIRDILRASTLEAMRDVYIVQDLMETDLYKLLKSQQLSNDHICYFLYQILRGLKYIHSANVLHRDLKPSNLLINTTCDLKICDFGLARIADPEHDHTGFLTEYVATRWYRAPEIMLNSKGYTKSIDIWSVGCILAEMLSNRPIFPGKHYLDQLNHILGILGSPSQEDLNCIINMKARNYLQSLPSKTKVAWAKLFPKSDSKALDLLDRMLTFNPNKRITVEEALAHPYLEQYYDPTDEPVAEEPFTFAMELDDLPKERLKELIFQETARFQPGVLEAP

[2] = biological target: Mitogen-activated protein kinase 1 (Homo sapiens, UniProt P28482); assay: Inhibition of human recombinant GST-tagged ERK2 expressed in Escherichia coli using ser/thr 3 Peptide as substrate preincubated for 1 hr measured after 1 hr by Z-LYTE assay
Chain of Mitogen-activated protein kinase 1 (P28482 whole entry): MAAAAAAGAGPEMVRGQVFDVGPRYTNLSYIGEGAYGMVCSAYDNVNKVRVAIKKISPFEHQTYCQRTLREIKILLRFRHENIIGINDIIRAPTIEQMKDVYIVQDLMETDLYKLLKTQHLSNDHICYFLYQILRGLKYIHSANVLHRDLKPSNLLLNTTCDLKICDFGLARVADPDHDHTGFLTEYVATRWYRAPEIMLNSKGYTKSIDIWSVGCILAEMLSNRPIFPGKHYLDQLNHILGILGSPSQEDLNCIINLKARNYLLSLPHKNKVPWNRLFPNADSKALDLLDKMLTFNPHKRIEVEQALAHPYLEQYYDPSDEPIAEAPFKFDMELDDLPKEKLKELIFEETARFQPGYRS

[3] = biological target: Dual specificity mitogen-activated protein kinase kinase; MEK1/2 (Homo sapiens) (UniProt P36507+Q02750); assay: Inhibition of ERK phosphorylation in human HT-29 cells after 2 hrs by Western blot analysis; assay type: cell-based
Chain of Dual specificity mitogen-activated protein kinase kinase; MEK1/2 (Homo sapiens) (P36507 whole entry, looked up): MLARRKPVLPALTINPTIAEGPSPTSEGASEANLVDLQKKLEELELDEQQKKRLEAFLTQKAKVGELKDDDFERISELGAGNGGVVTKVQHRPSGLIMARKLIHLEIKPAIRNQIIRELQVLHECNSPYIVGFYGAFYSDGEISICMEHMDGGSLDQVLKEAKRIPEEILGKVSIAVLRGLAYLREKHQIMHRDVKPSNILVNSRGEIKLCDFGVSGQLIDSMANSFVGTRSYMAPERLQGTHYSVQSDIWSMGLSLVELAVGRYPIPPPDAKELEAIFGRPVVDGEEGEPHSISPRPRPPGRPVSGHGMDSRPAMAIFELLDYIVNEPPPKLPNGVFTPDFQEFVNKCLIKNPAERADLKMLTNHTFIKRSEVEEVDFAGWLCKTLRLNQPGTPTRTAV
Chain of Dual specificity mitogen-activated protein kinase kinase; MEK1/2 (Homo sapiens) (Q02750 whole entry, looked up): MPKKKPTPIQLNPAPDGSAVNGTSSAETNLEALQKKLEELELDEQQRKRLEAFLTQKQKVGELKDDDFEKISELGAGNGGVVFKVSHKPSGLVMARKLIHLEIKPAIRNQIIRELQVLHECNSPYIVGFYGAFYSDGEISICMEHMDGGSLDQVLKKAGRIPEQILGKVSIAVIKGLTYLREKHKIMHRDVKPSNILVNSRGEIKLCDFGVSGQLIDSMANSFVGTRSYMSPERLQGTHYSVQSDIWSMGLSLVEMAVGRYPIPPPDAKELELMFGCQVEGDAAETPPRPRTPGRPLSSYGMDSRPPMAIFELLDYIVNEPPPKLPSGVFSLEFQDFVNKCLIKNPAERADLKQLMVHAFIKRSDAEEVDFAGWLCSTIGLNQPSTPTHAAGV

[4] = AUC (0 to 24 hrs) in rat at 10 mg/kg, po; assay type: ADME, organism-based; design: time < 24 hr, dose 10 mg/kg, route oral; details: in vivo
[5] = Apparent permeability in human Caco2 cells assessed as Fabs after 95 mins by LC-MS/MS analysis; assay type: ADME, cell-based; details: caco-2, 95 min
[6] = biological target: Mitogen-activated protein kinase; ERK1/ERK2 (Homo sapiens) (UniProt P27361+P28482); assay: Inhibition of ERK1/ERK2 in human HT-29 cells assessed as reduction in p90RSK phosphorylation after 2 hrs by Western blot analysis; assay type: cell-based
Chain of Mitogen-activated protein kinase; ERK1/ERK2 (Homo sapiens) (P27361 whole entry, looked up): as the sequence (P27361 whole entry) above
Chain of Mitogen-activated protein kinase; ERK1/ERK2 (Homo sapiens) (P28482 whole entry, looked up): as the sequence (P28482 whole entry) above

[7] = biological target: Platelet-derived growth factor receptor beta (Homo sapiens, UniProt P09619); assay: Inhibition of PDGFRbeta (unknown origin) by Z-LYTE assay
Ephrin type-A receptor 2 = Ephrin type-A receptor 2 (Homo sapiens, UniProt P29317); assay: Inhibition of EPHA2 (unknown origin) by Z-LYTE assay
[8] = biological target: Proto-oncogene tyrosine-protein kinase Src (Homo sapiens, UniProt P12931); assay: Inhibition of c-Src (unknown origin) by Z-LYTE assay
Chain of Proto-oncogene tyrosine-protein kinase Src (P12931 2-536 limits assumed): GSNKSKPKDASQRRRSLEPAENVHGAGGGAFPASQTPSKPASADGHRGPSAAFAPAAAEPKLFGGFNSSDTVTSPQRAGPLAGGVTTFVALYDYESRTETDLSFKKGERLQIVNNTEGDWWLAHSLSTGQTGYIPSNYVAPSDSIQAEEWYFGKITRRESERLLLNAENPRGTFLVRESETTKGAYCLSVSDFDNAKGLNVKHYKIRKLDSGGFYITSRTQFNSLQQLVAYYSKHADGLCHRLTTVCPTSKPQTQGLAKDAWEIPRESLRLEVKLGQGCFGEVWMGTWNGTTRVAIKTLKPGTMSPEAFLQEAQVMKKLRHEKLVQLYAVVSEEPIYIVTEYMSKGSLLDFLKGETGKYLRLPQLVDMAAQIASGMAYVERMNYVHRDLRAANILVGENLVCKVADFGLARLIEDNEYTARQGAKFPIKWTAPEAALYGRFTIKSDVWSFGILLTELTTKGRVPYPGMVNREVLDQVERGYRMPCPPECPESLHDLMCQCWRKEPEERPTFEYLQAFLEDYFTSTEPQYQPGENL

[9] = biological target: Tyrosine-protein kinase ABL1 (Homo sapiens, UniProt P00519); assay: Inhibition of ABL (unknown origin) by Z-LYTE assay
[10] = biological target: ALK tyrosine kinase receptor (Homo sapiens, UniProt Q9UM73); assay: Inhibition of ALK (unknown origin) by Z-LYTE assay
[11] = biological target: Vascular endothelial growth factor receptor 2 (Homo sapiens, UniProt P35968); assay: Inhibition of KDR (unknown origin) by Z-LYTE assay
[12] = biological target: Vascular endothelial growth factor receptor 1 (Homo sapiens, UniProt P17948); assay: Inhibition of FLT1 (unknown origin) by Z-LYTE assay
[13] = biological target: Epidermal growth factor receptor (Homo sapiens, UniProt P00533); assay: Inhibition of EGFR (unknown origin) by Z-LYTE assay
[14] = biological target: Fibroblast growth factor receptor 1 (Homo sapiens, UniProt P11362); assay: Inhibition of FGFR1 (unknown origin) by Z-LYTE assay
[15] = Oral bioavailability in mouse at 5 mg/kg; assay type: ADME, organism-based; details: in vivo
[16] = biological target: Hepatocyte growth factor receptor (Homo sapiens, UniProt P08581); assay: Inhibition of c-MET (unknown origin) by Z-LYTE assay
[17] = biological target: Insulin-like growth factor 1 receptor (Homo sapiens, UniProt P08069); assay: Inhibition of IGF1R (unknown origin) by Z-LYTE assay
Chain of Insulin-like growth factor 1 receptor (P08069 31-736 limits assumed): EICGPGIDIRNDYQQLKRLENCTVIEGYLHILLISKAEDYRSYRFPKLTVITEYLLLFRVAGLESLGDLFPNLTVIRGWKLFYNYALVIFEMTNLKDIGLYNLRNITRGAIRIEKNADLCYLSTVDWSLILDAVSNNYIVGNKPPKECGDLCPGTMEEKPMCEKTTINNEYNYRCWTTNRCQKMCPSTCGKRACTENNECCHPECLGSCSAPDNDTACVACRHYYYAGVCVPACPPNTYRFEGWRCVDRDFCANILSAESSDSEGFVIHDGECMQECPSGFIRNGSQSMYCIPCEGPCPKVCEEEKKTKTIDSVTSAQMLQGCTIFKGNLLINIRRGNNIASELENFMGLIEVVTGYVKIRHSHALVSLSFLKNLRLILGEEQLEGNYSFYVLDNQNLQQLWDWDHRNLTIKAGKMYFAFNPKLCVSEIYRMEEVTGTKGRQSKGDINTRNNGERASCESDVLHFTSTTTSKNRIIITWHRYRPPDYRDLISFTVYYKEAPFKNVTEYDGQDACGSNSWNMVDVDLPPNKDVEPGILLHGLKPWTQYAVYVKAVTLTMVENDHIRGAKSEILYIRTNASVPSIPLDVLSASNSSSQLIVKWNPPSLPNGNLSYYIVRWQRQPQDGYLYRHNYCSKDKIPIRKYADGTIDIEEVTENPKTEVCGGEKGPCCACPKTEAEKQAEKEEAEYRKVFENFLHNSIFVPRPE
Chain of Insulin-like growth factor 1 receptor (P08069 741-1367 limits assumed): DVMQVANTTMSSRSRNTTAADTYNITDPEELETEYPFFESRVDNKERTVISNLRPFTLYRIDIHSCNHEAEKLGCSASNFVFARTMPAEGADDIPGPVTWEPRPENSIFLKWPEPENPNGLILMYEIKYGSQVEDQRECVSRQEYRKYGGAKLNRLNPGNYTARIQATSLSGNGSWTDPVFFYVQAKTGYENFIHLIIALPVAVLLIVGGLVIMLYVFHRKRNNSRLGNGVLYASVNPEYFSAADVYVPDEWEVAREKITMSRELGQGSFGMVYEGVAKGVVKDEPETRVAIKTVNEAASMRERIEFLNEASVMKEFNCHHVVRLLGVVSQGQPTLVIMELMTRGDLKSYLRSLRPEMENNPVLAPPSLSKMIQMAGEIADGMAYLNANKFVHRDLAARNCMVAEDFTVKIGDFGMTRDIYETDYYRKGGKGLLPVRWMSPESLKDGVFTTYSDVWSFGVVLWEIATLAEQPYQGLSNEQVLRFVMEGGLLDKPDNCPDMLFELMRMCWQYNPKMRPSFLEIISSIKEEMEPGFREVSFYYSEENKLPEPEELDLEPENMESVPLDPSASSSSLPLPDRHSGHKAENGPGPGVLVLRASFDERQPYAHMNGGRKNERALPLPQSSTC

[18] = Clearance in mouse at 5 mg/kg, po or 1 mg/kg, iv; assay type: ADME, organism-based; details: in vivo
[19] = biological target: Receptor tyrosine-protein kinase erbB-2 (Homo sapiens, UniProt P04626); assay: Inhibition of ERBB2 (unknown origin) by Z-LYTE assay
[20] = AUC (0 to 24 hrs) in mouse at 5 mg/kg, po; assay type: ADME, organism-based; design: dose 5 mg/kg, time < 24 hr, route oral; details: in vivo
[21] = biological target: Proto-oncogene tyrosine-protein kinase receptor Ret (Homo sapiens, UniProt P07949); assay: Inhibition of RET (unknown origin) by Z-LYTE assay
Chain of Proto-oncogene tyrosine-protein kinase receptor Ret (P07949 whole entry): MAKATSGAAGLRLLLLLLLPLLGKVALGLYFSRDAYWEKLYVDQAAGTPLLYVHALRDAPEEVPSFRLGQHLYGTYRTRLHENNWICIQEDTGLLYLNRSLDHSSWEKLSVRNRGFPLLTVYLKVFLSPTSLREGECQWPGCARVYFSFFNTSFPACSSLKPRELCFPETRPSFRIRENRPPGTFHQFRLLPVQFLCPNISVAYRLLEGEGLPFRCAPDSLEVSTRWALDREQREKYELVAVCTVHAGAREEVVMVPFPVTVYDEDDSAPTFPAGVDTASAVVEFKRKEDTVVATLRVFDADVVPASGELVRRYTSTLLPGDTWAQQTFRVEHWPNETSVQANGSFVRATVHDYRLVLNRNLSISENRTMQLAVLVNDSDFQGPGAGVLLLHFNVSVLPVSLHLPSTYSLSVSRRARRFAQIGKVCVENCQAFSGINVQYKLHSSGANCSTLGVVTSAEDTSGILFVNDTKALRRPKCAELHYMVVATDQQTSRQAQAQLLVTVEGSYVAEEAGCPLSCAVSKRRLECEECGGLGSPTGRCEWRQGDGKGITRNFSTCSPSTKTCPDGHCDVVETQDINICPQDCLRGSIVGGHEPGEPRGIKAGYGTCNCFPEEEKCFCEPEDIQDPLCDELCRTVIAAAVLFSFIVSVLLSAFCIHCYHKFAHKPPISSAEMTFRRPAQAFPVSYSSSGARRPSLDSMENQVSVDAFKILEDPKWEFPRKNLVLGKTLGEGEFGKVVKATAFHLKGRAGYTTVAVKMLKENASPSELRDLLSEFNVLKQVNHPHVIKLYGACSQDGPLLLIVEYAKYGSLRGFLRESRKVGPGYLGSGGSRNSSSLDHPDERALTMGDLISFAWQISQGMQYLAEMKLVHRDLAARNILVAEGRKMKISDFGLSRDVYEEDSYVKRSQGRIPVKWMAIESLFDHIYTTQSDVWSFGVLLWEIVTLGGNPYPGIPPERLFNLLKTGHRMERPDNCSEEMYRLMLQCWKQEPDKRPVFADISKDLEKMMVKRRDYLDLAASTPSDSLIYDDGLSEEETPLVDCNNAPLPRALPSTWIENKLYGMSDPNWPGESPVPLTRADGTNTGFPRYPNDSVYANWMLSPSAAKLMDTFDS

| pIC50 (HT-29) | pIC50 [1] | pIC50 [2] | Structure (SMILES) | other results |
| --- | --- | --- | --- | --- |
| 5.48 | 7.41 | 7.71 | O=C(NCCc1ccccc1)c1ccc2[nH]nc(-c3ccncc3)c2c1 | – |
| 5.17 | – | 6.86 | O=C(NCCNc1ccccc1)c1ccc2[nH]nc(-c3ccncc3)c2c1 | – |
| 5.08 | – | 6.81 | O=C(NCc1c(Cl)cccc1Cl)c1ccc2[nH]nc(-c3ccncc3)c2c1 | – |
| 4.88 | 6.97 | 7.30 | O=C(NCc1ccccc1)c1ccc2[nH]nc(-c3ccncc3)c2c1 | – |
| 6.05 | – | 7.59 | C[C@@H](NC(=O)c1ccc2[nH]nc(-c3ccncc3)c2c1)c1cccc(Cl)c1 | inhibition [3]: inactive; AUC(0-t) at 24 h [4]: 56 ng·h/mL; Fabs [5]: 100%; inhibition [6]: Dose-dependent effect |
| 5.96 | 7.78 | 8.10 | Cc1cc(-c2n[nH]c3ccc(C(=O)NCc4c(Cl)cnc(Cl)c4Cl)cc23)ccn1 | – |
| 5.55 | 7.33 | 7.50 | O=C(NCc1ccccc1Cl)c1ccc2[nH]nc(-c3ccncc3)c2c1 | – |
| 6.46 | 7.53 | 7.78 | Cc1cc(-c2n[nH]c3ccc(C(=O)NC(C)c4c(Cl)cncc4Cl)cc23)ccn1 (stereo unspecified) | pIC50 [7]: < 6.00; pIC50 (Ephrin type-A receptor 2): < 6.00; inhibition [3]: inactive; pIC50 [8]: < 6.00; pIC50 [9]: < 6.00; pIC50 [10]: < 6.00; pIC50 [11]: < 6.00; inhibition [6]: Dose-dependent effect; pIC50 [12]: < 6.00; pIC50 [13]: < 6.00; pIC50 [14]: < 6.00; bioavailability [15]: 12%; pIC50 [16]: < 6.00; pIC50 [17]: < 6.00; clearance [18]: 163 mL/min/kg; pIC50 [19]: < 6.00; AUC(0-t) at 24 h [20]: 61 ng·h/mL; pIC50 [21]: < 6.00 |
| 4.78 | 6.08 | 6.66 | O=C(N[C@@H](CO)c1cccc(Cl)c1)c1ccc2[nH]nc(-c3ccncc3)c2c1 | – |
| 5.15 | – | < 5.70 | CC(C)CC(NC(=O)c1ccc2[nH]nc(-c3ccncc3)c2c1)c1cccc(Cl)c1 (stereo unspecified) | – |
| 5.35 | 7.37 | 7.47 | O=C(NCCCc1ccccc1)c1ccc2[nH]nc(-c3ccncc3)c2c1 | – |
| 5.64 | 7.13 | 7.90 | O=C(NCc1cccc(Cl)c1)c1ccc2[nH]nc(-c3ccncc3)c2c1 | – |
| 5.21 | 7.26 | 8.03 | O=C(NCc1c(Cl)cncc1Cl)c1ccc2[nH]nc(-c3ccncc3)c2c1 | Fabs [5]: 99% |
| 5.60 | 6.95 | 7.48 | O=C(NC(CO)c1cccc(Cl)c1)c1ccc2[nH]nc(-c3ccc(O)c(F)c3)c2c1 (stereo unspecified) | – |
| 5.80 | – | 7.80 | CC(C)Nc1cc(-c2c[nH]c(C(=O)N[C@H](CO)c3ccccc3)c2)c(Cl)cn1 | – |
| 4.68 | 7.17 | 7.81 | Nc1cc(-c2n[nH]c3ccc(C(=O)NC(CO)c4cccc(Cl)c4)cc23)ccn1 (stereo unspecified) | – |
| 4.94 | – | 6.53 | O=C(NC(CO)c1cccc(Cl)c1)c1ccc2[nH]nc(C3CCOCC3)c2c1 (stereo unspecified) | – |
| 5.62 | 7.27 | 7.75 | Cc1cc(-c2n[nH]c3ccc(C(=O)NC(CO)c4cccc(Cl)c4)cc23)ccn1 (stereo unspecified) | – |
| 5.26 | 7.14 | 7.62 | O=C(NC(CO)c1cccc(Cl)c1)c1ccc2[nH]nc(-c3ccncc3)c2c1 (stereo unspecified) | Fabs [5]: 69% |

| pIC50 (HT-29) | pIC50 [1] | pIC50 [2] | Structure (SMILES) | other results |
| --- | --- | --- | --- | --- |
| 6.32 | 7.71 | 8.02 | Cc1cc(-c2n[nH]c3ccc(C(=O)N[C@@H](C)c4c(Cl)cccc4Cl)cc23)ccn1 | – |
| 5.04 | – | 7.20 | O=C(NCCOc1ccccc1)c1ccc2[nH]nc(-c3ccncc3)c2c1 | – |
| 5.42 | – | 6.96 | Cc1cc(-c2n[nH]c3ccc(C(=O)NC(C)c4cccc(Cl)c4)cc23)cc(C)n1 (stereo unspecified) | bioavailability [15]: 8%; clearance [18]: 42 mL/min/kg; AUC(0-t) at 24 h [20]: 162 ng·h/mL |
| 5.43 | – | 7.05 | CC(CNC(=O)c1ccc2[nH]nc(-c3ccncc3)c2c1)OCc1ccccc1 (stereo unspecified) | – |
| 6.15 | 7.65 | 7.88 | Cc1cc(-c2n[nH]c3ccc(C(=O)NC(C)c4c(Cl)cnc(Cl)c4Cl)cc23)ccn1 (stereo unspecified) | inhibition [3]: inactive; inhibition [6]: Dose-dependent effect |
| 4.98 | – | 6.65 | Cc1cc(-c2n[nH]c3ccc(C(=O)NC(C)c4ccncc4)cc23)ccn1 (stereo unspecified) | – |
| 5.12 | – | 6.33 | C[C@H](NC(=O)c1ccc2[nH]nc(-c3ccncc3)c2c1)c1cccc(Cl)c1 | – |
| 5.22 | 6.89 | 7.41 | CC(CNC(=O)c1ccc2[nH]nc(-c3ccncc3)c2c1)Oc1ccccc1 (stereo unspecified) | – |
| 5.82 | 7.53 | 7.92 | O=C(NCc1ccc(Cl)c(F)c1Cl)c1ccc2[nH]nc(-c3ccncc3)c2c1 | – |
| 5.22 | – | 6.56 | O=C(NC(CO)c1cccc(Cl)c1)c1ccc2[nH]nc(-c3ccccc3)c2c1 (stereo unspecified) | – |
| 5.48 | 7.49 | 7.65 | CC(NC(=O)c1ccc2[nH]nc(-c3cc(F)c(O)c(F)c3)c2c1)c1cccc(Cl)c1 (stereo unspecified) | – |
| 4.82 | – | 6.37 | O=C(NCCc1cccc(Cl)c1)c1ccc2[nH]nc(-c3ccncc3)c2c1 | – |
| 4.97 | – | 6.20 | Cc1cc(-c2n[nH]c3ccc(C(=O)N[C@H](C)c4c(Cl)cccc4Cl)cc23)ccn1 | – |
| 5.72 | 7.58 | 8.15 | O=C(N[C@H](CO)c1cccc(Cl)c1)c1ccc2[nH]nc(-c3ccncc3)c2c1 | – |
| 5.03 | 7.58 | 7.65 | O=C(NCc1ccnc(Cl)c1)c1ccc2[nH]nc(-c3ccncc3)c2c1 | – |
| 5.47 | – | 7.21 | O=C(NC(CO)c1cc(Cl)cc(Cl)c1)c1ccc2[nH]nc(-c3ccncc3)c2c1 (stereo unspecified) | – |
| 5.82 | 7.10 | 7.23 | CCC(NC(=O)c1ccc2[nH]nc(-c3ccncc3)c2c1)c1cccc(Cl)c1 (stereo unspecified) | – |
| 5.46 | 7.44 | 7.78 | CC(NC(=O)c1ccc2[nH]nc(-c3ccncc3)c2c1)c1ccccc1Cl (stereo unspecified) | – |
| 6.05 | 6.81 | 7.27 | CC(NC(=O)c1ccc2[nH]nc(-c3ccncc3)c2c1)c1cccc(Cl)c1 (stereo unspecified) | pIC50 [7]: < 6.00; pIC50 (Ephrin type-A receptor 2): < 6.00; pIC50 [8]: < 6.00; pIC50 [9]: < 6.00; pIC50 [10]: < 6.00; pIC50 [11]: < 6.00; pIC50 [12]: < 6.00; pIC50 [13]: < 6.00; pIC50 [14]: < 6.00; pIC50 [16]: < 6.00; pIC50 [17]: < 6.00; pIC50 [19]: < 6.00; pIC50 [21]: < 6.00 |
